30 compounds from US8399482B2, “6-substituted isoquinolines and isoquinolinones” (Sanofi, priority 2008, dated 2013) can be followed below.

This experiment has as its target T1, human recombinant ROCK II (Homo sapiens, UniProt O75116).
T1 construct: recombinant human ROCK-II residues 11-552; His6 (N); purchased Millipore GmbH, Schwalbach, Germany
In words: Determination of Rho kinase inhibition (ROCK II, Caliper peptide phosphorylation assay). The experiment is classed as biochemical. Particulars: respective form (salt or free base) as obtained in the examples, 60 min at 32° C. The protocol:
To measure Rho-kinase inhibition, IC50 values were determined according to the following protocol:
Active human recombinant ROCK II (N-terminal His6-tagged recombinant human ROCK-II residues 11-552) was purchased from Millipore GmbH, Schwalbach, Germany. The peptide substrate, Fluorescein-[…]-COOH, was obtained from JPT Peptide Technologies, Berlin, Germany. Adenosine-5′-triphosphate (ATP), bovine serum albumine (BSA), dimethylsulphoxide (DMSO), 4-(2-hydroxyethyl)piperazine-1-ethanesulfonic acid (Hepes), Brij-35, dithiothreitol (DTT) and Pluronic F-68 were purchased from Sigma-Aldrich, Munich, Germany. Tris(hydroxymethyl)-aminomethane (Tris), magnesium chloride, NaOH, 1M HCl and EDTA were obtained from Merck Biosciences, Darmstadt, Germany. “Complete” protease inhibitor was from Roche Diagnostics, Mannheim, Germany. Test compounds were diluted to the appropriate concentrations in buffer 1 (25 mM Tris-HCl, pH 7.4, 5 mM MgCl2, 2 mM DTT, 0.02% (w/v) BSA, 0.01% Pluronic F-68 and 3% DMSO). The ROCK II enzyme was diluted to a concentration of 100 ng/mL in buffer 2 (25 mM Tris-HCl, pH 7.4, 5 mM MgCl2, 2 mM DTT and 0.02% (w/v) BSA). The peptide substrate and ATP were diluted to concentrations of 3 μM and 120 μM, respectively, in the buffer 2. Two μl of the compound solution were mixed with 2 μl of the diluted enzyme in a 384-well small volume microtiter plate (Greiner, Bio-One, Frickenhausen, Germany), and the kinase reaction was initiated by addition of 2 μl of the solution containing peptide substrate and ATP. After 60 min incubation at 32° C., the reaction was stopped by addition of 20 μl of a solution containing 100 mM Hepes-NaOH, pH 7.4, 0.015% (v/v) Brij-35, 45 mM EDTA and 0.227% chip coating reagent 1 (Caliper Lifescience Inc, Hopkinton, Mass.). Phosphorylation of the substrate peptide was then detected on a Caliper 3000 instrument essentially as described by Pommereau et al (J. Biomol. Screening 2004, 9(5), 409-416). Separation conditions were as follows: Pressure −1.3 psi, upstream voltage −1562 V, downstream voltage −500 V, sample sip time 200 ms. Positive controls (buffer 1 instead of compound) and negative controls (buffer 1 instead of compound and buffer 2 instead of ROCK II) were run in parallel on each plate.
The following products/compounds were tested in said assay by using the respective form (salt or free base) obtained as in the examples described above and the following activities were measured

A word on the IC50: it is the point on the concentration scale where inhibition reaches its midpoint.

T1 sequence (O75116 11-552): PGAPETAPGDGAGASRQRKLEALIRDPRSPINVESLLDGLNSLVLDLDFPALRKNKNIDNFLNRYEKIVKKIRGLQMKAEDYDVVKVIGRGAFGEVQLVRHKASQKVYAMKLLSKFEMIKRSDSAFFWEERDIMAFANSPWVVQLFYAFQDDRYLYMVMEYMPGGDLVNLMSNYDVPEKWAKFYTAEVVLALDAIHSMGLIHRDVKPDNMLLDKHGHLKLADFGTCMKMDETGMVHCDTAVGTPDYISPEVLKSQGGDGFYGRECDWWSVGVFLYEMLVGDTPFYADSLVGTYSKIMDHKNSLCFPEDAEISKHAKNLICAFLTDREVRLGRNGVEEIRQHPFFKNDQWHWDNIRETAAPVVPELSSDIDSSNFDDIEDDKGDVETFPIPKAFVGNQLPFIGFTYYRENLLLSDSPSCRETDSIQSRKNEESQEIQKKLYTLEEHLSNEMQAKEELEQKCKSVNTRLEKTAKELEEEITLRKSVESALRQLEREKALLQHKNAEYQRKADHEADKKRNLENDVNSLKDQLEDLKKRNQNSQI

With `CCOC1(C(N)CC)CCC(Oc2cc3cc[nH]c(=O)c3cc2Cl)CC1` (mixture of isomers) [Example 60, 6-[4-(1-Amino-propyl)-4-ethoxy-cyclohexyloxy]-7-chloro-2H-isoquinolin-1-one], the IC50 was 10 to 100 nM.

Take `CCC(N)[C@]1(C)CC[C@H](Oc2cc3cc[nH]c(=O)c3cc2Cl)CC1` (mixture of isomers) [Example 26, cis-6-[4-(1-Amino-propyl)-4-methyl-cyclohexyloxy]-7-chloro-2H-isoquinolin-1-one]: the IC50 was not above 10 nM.

Turning to `CCC(N)C1(COC(C)C)CCC(Oc2cc3cc[nH]c(=O)c3cc2Cl)CC1` (single isomer, unassigned) [Example 20, 6-[4-(1-Amino-propyl)-4-isopropoxymethyl-cyclohexyloxy]-7-chloro-2H-isoquinolin-1-one], the concentration for half-maximal inhibition (IC50) is 100 to 1000 nM.

Turning to `CCC(N)C1(C2CCCC2)CCC(Oc2cc3cc[nH]c(=O)c3cc2Cl)CC1` (single isomer, unassigned) [Example 24, 6-[4-(1-Amino-propyl)-4-cyclopentyl-cyclohexyloxy]-7-chloro-2H-isoquinolin-1-one], the IC50 was 10 to 100 nM.

As for `CCC(N)C1(CC(C)C)CCC(Oc2cc3cc[nH]c(=O)c3cc2Cl)CC1` (single isomer, unassigned) [Example 29, 6-[4-(1-Amino-propyl)-4-isobutyl-cyclohexyloxy]-7-chloro-2H-isoquinoIin-1-one], the IC50 was 10 to 100 nM.

On to `NC(C(F)(F)F)C1(CC2CC2)CCC(Oc2cc3cc[nH]c(=O)c3cc2Cl)CC1` (single isomer, unassigned) [Example 40, 6-[4-(1-Amino-2,2,2-trifluoro-ethyl)-4-cyclo-propylmethyl-cyclohexyloxy]-7-chloro-2H-isoquinolin-1-one], for which the IC50 is 100 to 1000 nM.

Turning to `CC(C)C1(C(N)c2nccs2)CCC(Oc2cc3cc[nH]c(=O)c3cc2Cl)CC1` (single isomer, unassigned) [Example 46, 6-[4-(Amino-thiazol-2-yl-methyl)-4-isopropyl-cyclohexyl-oxy]-7-chloro-2H-isoquinolin-1-one], the IC50 is 100 to 1000 nM.

Consider `CCC1(C(N)CCOC)CCC(Oc2cc3cc[nH]c(=O)c3cc2Cl)CC1` (single isomer, unassigned) [Example 98, 6-[4-(1-amino-3-methoxy-propyl)-4-ethyl-cyclohexyloxy]-7-chloro-2H-isoquinolin-1-one], for which the IC50 is 10 to 100 nM.

With `CCC(N)C1(C(F)(F)F)CCC(Oc2cc3cc[nH]c(=O)c3cc2Cl)CC1` (single isomer, unassigned) [Example 104, 6-[4-(1-Amino-propyl)-4-trifluoromethyl-cyclohexyloxy]-7-chloro-2H-isoquinolin-1-one], the IC50 was 100 to 1000 nM.

For the compound `CCC(N)C1(C2CCOCC2)CCC(Oc2cc3cc[nH]c(=O)c3cc2Cl)CC1` (single isomer, unassigned) [Example 105], the IC50 was 10 to 100 nM.

For the compound `CCCC[C@]1(C(N)CC)CC[C@@H](Oc2cc3c(Cc4ccccc4)c[nH]c(=O)c3cc2Cl)CC1` (stereo partly drawn) [Example 39, cis-6-[4-(1-Amino-propyl)-4-butyl-cyclohexyloxy]-4-benzyl-7-chloro-2H-isoquinolin-1-one], the IC50 is 100 to 1000 nM.

With `CCC(N)[C@]1(CC)CC[C@H](Oc2c(F)cc3c(=O)[nH]ccc3c2C)CC1` (stereo partly drawn) [Example 51, cis-6-[4-(1-Amino-propyl)-4-ethyl-cyclohexyloxy]-7-fluoro-5-methyl-2H-isoquinolin-1-one], the IC50 is 100 to 1000 nM.

With `CCC(N)[C@]1(CC)CC[C@H](Oc2c(C)cc3cnccc3c2C)CC1` (stereo partly drawn) [Example 53, cis-1-[4-(5,7-Dimethyl-isoquinolin-6-yloxy)-1-ethyl-cyclohexyl]-propylamine], the IC50 was 100 to 1000 nM.

Take `CCC(N)[C@]1(CC)CC[C@H](Oc2cc3ccncc3cc2C)CC1` (stereo partly drawn) [Example 56, cis-1-[1-Ethyl-4-(7-methyl-isoquinolin-6-yloxy)-cyclohexyl]-propylamine]: the IC50 was 100 to 1000 nM.

Take `CCC(N)[C@]1(CC)CC[C@H](Oc2c(F)cc3cnccc3c2C)CC1` (stereo partly drawn) [Example 57, cis-1-[1-Ethyl-4-(7-fluoro-5-methyl-isoquinolin-6-yloxy)-cyclohexyl]-propylamine]: the IC50 was 100 to 1000 nM.

Regarding `NC(c1ccccc1)[C@]1(CC2CC2)CC[C@H](Oc2cc3cc[nH]c(=O)c3cc2Cl)CC1` (stereo partly drawn) [Example 63, cis-6-[4-(Amino-phenyl-methyl)-4-cyclopropylmethyl-cyclohexyloxy]-7-chloro-2H-isoquinolin-1-one], the IC50 is 100 to 1000 nM.

For the compound `CCC(N)[C@]1(CCCC(F)(F)F)CC[C@H](Oc2cc3cc[nH]c(=O)c3cc2Cl)CC1` (stereo partly drawn) [Example 66, cis-6-[4-(1-Amino-propyl)-4-(4,4,4-trifluoro-butyl)-cyclohexyloxy]-7-chloro-2H-isoquinolin-1-one], the IC50 is not above 10 nM.

In the case of `CCC(N)[C@]1(CC2CCOCC2)CC[C@H](Oc2cc3cc[nH]c(=O)c3cc2Cl)CC1` (stereo partly drawn) [Example 67, cis-6-[4-(1-Amino-propyl)-4-(tetrahydro-pyran-4-ylmethyl)-cyclohexyloxy]-7-chloro-2H-isoquinolin-1-one], the half-maximal inhibitory concentration (IC50) was 10 to 100 nM.

On to `CCOC[C@]1(C(N)CC)CC[C@@H](Oc2cc3cc[nH]c(=O)c3cc2Cl)CC1` (stereo partly drawn) [Example 71, cis-6-[4-(1-Amino-propyl)-4-ethoxymethyl-cyclohexyloxy]-7-chloro-2H-isoquinolin-1-one], for which the IC50 was not above 10 nM.

With `CC[C@]1(C(C)N)CC[C@@H](Oc2c(F)cc3c(=O)[nH]ccc3c2C)CC1` (stereo partly drawn) [Example 79, cis-6-[4-(1-Amino-ethyl)-4-ethyl-cyclohexyloxy]-7-fluoro-5-methyl-2H-isoquinolin-1-one], the IC50 is 100 to 1000 nM.

Regarding `CC[C@]1(C(C)N)CC[C@@H](Oc2c(F)cc3cnccc3c2C)CC1` (stereo partly drawn) [Example 80, cis-1-[1-Ethyl-4-(7-fluoro-5-methyl-isoquinolin-6-yloxy)-cyclohexyl]-ethylamine], the IC50 was 100 to 1000 nM.

Turning to `CC[C@]1(C(C)N)CC[C@@H](Oc2cc3c(Cc4ccccc4)c[nH]c(=O)c3cc2Cl)CC1` (stereo partly drawn) [Example 81, cis-6-[4-(1-Amino-ethyl)-4-ethyl-cyclohexyloxy]-4-benzyl-7-chloro-2H-isoquinolin-1-one], the IC50 is 100 to 1000 nM.

For `CC[C@]1(C(C)N)CC[C@@H](Oc2cc3ccncc3cc2Br)CC1` (stereo partly drawn) [Example 82, cis-1-[4-(7-Bromo-isoquinolin-6-yloxy)-1-ethyl-cyclohexyl]-ethylamine], the half-inhibitory concentration (IC50) was 100 to 1000 nM.

Turning to `CC[C@]1(C(C)N)CC[C@@H](Oc2ccc3cnccc3c2Cl)CC1` (stereo partly drawn) [Example 84, cis-1-[4-(5-Chloro-isoquinolin-6-yloxy)-1-ethyl-cyclohexyl]-ethylamine], the half-maximal inhibitory concentration (IC50) was 100 to 1000 nM.

Consider `CCC(NCC1CC1)[C@]1(CC)CC[C@H](Oc2cc3cc[nH]c(=O)c3cc2Cl)CC1` (stereo partly drawn) [Example 85, cis-7-Chloro-6-{4-[1-(cyclopropylmethyl-amino)-propyl]-4-ethyl-cyclohexyloxy}-2H-isoquinolin-1-one], for which the IC50 was 100 to 1000 nM.

As for `CCC(NCc1ccccc1)C1(CC)CCC(Oc2cc3cc[nH]c(=O)c3cc2Cl)CC1` (stereo not drawn) [Example 86, cis-6-[4-(1-Benzylamino-propyl)-4-ethyl-cyclohexyloxy]-7-chloro-2H-isoquinolin-1-one], the pIC50 result is “+++++ (6.0 ≦ pIC50 < 7.0)”.

In the case of `CCC(NCC(C)C)[C@]1(CC)CC[C@H](Oc2cc3cc[nH]c(=O)c3cc2Cl)CC1` (stereo partly drawn) [Example 87, cis-7-Chloro-6-[4-ethyl-4-(1-isobutylamino-propyl)-cyclohexyloxy]-2H-isoquinolin-1-one], the IC50 was 100 to 1000 nM.

`CCCCNC(CC)[C@]1(CC)CC[C@H](Oc2cc3cc[nH]c(=O)c3cc2Cl)CC1` (stereo partly drawn) [Example 88, cis-6-[4-(1-Butylamino-propyl)-4-ethyl-cyclohexyloxy]-7-chloro-2H-isoquinolin-1-one]: the IC50 is 100 to 1000 nM.

As for `CC(C)C(N)C1(C(C)C)CCC(Oc2cc3cc[nH]c(=O)c3cc2Cl)CC1` (stereo not drawn) [Example 89, 6-[4-(1-Amino-2-methyl-propyl)-4-isopropyl-cyclohexyloxy]-7-chloro-2H-isoquinolin-1-one], the IC50 is 100 to 1000 nM.

For the compound `CCC[C@]1(C(C)N)CC[C@@H](Oc2cc3ccnc(N)c3cc2Cl)CC1` (stereo partly drawn) [Example 100, cis-6-[4-(1-Amino-ethyl)-4-propyl-cyclohexyloxy]-7-chloro-isoquinolin-1-ylamine], the IC50 is 100 to 1000 nM.
